In experiment [1] the target is T1, Olfr78 (Mus musculus, UniProt Q8VBV9).
T1 construct: host or cells: HEK293T
T1 sequence (Q8VBV9 1-320): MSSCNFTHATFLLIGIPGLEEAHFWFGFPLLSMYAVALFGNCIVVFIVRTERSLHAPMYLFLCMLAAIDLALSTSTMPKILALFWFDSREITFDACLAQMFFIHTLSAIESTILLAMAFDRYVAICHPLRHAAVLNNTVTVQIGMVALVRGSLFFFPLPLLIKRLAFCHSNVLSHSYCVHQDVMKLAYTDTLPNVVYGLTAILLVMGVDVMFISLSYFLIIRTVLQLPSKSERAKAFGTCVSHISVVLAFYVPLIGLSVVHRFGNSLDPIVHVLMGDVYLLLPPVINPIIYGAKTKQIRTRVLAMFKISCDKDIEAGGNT
The settings on record: cited from earlier work.

The target in experiment [2] is T2, OR51E2 (Homo sapiens, UniProt Q9H255).
T2 construct: host or cells: HEK293T
T2 sequence (Q9H255 1-320): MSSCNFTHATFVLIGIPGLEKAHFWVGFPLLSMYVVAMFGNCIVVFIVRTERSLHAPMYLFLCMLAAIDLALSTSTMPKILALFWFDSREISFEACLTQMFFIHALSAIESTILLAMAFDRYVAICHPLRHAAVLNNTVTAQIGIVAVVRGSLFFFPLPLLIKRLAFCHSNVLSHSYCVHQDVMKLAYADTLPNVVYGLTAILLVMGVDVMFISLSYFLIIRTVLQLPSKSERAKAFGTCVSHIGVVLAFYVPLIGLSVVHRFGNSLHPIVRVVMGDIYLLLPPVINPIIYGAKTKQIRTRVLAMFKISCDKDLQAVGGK
The settings on record: cited from earlier work.

For experiment [3], the target named is T1, Olfr78. The experiment can be described thus: Luciferase dual reporter assay of Olfr78 expressed in HEK293T cells. Type of experiment: cell-based. The text has this: pCl-Rho-Olfr78 plasmid construction and expression. The pCl-Rho-Olfr78 plasmid was made by PCR amplifying the Olfr78 coding region from a pCMV6-Olfr78 plasmid (OriGene) using forward primer 5′-[…]-3′ and reverse primer 5′-[…]-3′, adding EcoR1 and Not1 restriction sites. The Olfr78 PCR fragment was then digested with EcoR1 and Not1 and cloned into a pCl-Rho backbone cut from a pCl-Rho-Olfr62 plasmid (gift of Hiroaki Matsunami, Duke University). […] Cytoplasmic GFP (co-transfection marker) was expressed from a TBC1 D25::eGFP plasmid (gift of Suzanne Pfeffer, Stanford University).
Luciferase assay. HEK293T cells were grown and seeded into 96 well plates. On the next day, cells were transfected with RTP1S, Gα15-olf (gifts of Hiroaki Matsunami, Duke University), pCMV6-Ric8b (Origene), pCRE-Luc (Agilent), and pSV40-RL (Promega) plasmids and either pCl-Rho-Olfr78 or pCl (Promega). The Rho tag on Olfr78 and RTP1S were used to enhance localization of Olfr78 to the plasma membrane. Gα15-olf and Ric8b were included as downstream effectors that couple to ORs to increase cAMP production upon OR activation. Two transcriptional luciferase reporters, one constitutive (Renilla, pSV40-RL) and one inducible by cAMP (firefly, pCRE-Luc) were transfected to report increased cAMP levels upon OR activation.
Five hours after transfection, media was decanted and replaced with 50 μL/well MEM without phenol red (Life Technologies). After thirty minutes, 25 μL of chemicals were added to each well to achieve the indicated final concentrations, and cells were incubated for 2 hours. Sodium salts of chloride, L-lactate, propionate, and acetate (Sigma) were used.
Reagents to detect firefly and Renilla luciferase activity (Dual-Glo Luciferase Assay System, Promega) were added at 20 μl/well. Luminescence was measured using an Infinite M1000 (Tecan) microplate reader and data acquired by Magellan Data Analysis Software (Tecan). Two readings were collected for each plate and luciferase reagent, and firefly to Renilla ratios were averaged. Data was from experiments conducted over three days. For dose response curves in FIG. 4a and FIGS. 11d-f, ratios were normalized to the highest and lowest average values for a given condition across all plates on each day.
Data analysis and statistics. Data analysis and statistical tests were performed using Microsoft Excel and GraphPad software. GraphPad Prism 6 was used to fit dose-response curves using a variable slope model and to calculate EC50 values. All data are biological replicates, and quantitative data with error bars are presented as mean±standard error of the mean (s.e.m.) with the exception of FIG. 11c, which is presented as percent±standard error of percentage. […] No statistical method was used to predetermine sample size.
On the technique in general: Reporter assays use an easily measured gene product as a stand-in for the process of interest.

For another experiment, the system named is carotid body. The experiment can be described thus: Carotid sinus nerve recordings (carotid body sensory activity). Details: species or system mouse. The settings on record: 30 mM, PO2=625 mmHg; for Carotid sinus nerve activity, Olfr78-/- mutants: Olfr78-/- mutant nerves; for Carotid sinus nerve activity, Olfr78+/+: wild-type Olfr78+/+ preparations.
The target of experiment [4] is T3, OR51E1 (Homo sapiens, UniProt Q8TCB6).
T3 sequence (Q8TCB6 1-318): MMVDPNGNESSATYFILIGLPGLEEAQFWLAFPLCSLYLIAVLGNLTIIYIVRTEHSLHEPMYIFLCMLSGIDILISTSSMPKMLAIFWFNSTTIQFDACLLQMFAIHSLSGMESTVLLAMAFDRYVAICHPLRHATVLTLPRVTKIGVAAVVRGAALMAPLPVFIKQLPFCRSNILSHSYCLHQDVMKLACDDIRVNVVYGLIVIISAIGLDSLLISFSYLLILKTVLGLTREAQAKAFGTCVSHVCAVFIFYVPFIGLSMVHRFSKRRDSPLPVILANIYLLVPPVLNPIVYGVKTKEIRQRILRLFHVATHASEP
The note with it: another study and a more recent study; cited from earlier work.

The target in experiment [5] is T2, OR51E2. The note with it: screen of 93 named compounds; cited from earlier work.
For the next experiment, the target named is Olfr558 (Mus musculus, UniProt Q8VGZ7). The settings on record: screen of 93 named compounds; cited from earlier work.
Chain of Olfr558 (Q8VGZ7 entry or part of it): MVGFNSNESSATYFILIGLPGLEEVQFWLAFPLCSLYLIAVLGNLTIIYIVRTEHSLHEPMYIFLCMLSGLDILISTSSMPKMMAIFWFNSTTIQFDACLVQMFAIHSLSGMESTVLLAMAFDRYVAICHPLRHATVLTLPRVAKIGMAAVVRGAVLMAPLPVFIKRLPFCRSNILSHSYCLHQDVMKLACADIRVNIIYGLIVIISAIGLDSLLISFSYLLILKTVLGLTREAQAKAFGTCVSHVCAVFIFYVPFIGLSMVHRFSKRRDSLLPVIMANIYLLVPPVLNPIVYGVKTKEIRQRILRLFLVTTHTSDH
The target in experiment [6] is T3, OR51E1. The note with it: screen of 93 named compounds; cited from earlier work.
For experiment [7], the system named is carotid body glomus cells. The experiment can be described thus: Calcium imaging of GCaMP3-expressing carotid body glomus cells. The format is cell-based, mouse. The settings on record: lactate 30 mM, cyanide 2 mM; whole carotid bodies and slice preparations; hyperoxia.
The mark [8] stands for this setting: study looking at Olfr78 and OR51E2.
Where [9] appears, read: heterologous expression in HEK293T cells, same range of concentrations.

Where two headings read alike, the source gives them in different places.

As for `CC(=O)O` [acetate], on Olfr78 [1] (setting [8]), the “Agonist activity at Olfr78” value is “agonists”. Further, at OR51E2 [2] (setting [8]), the “Agonist activity at OR51E2” value is listed as “agonists”. The “Activation of Olfr78 (in words)” value on Olfr78 [3] (setting [9]) is “stimulated Olfr78”. For the same molecule, in the experiment on carotid body, the “Carotid sinus nerve activity, Olfr78-/- mutants” value was “little effect” and the “Carotid sinus nerve activity, Olfr78+/+” value is reported as “stimulate carotid sinus nerve activity”.
Consider `CCC(C)CC(=O)O` (stereo not drawn) [3-methyl-valeric acid], for which the “Agonist activity at OR51E1” value at OR51E1 [4] is listed as “agonists”.
Take `CC(C)CCC(=O)O` [4-methyl-valeric acid]: the “Agonist activity at OR51E1” value on OR51E1 [4] is recorded as “agonists”.
For `CCC(=O)O` [propionate, propionic acid], the “Agonist activity at OR51E2 in chemical screen” value at OR51E2 [5] was “specifically activated”. The “Agonist activity at OR51E1” value on OR51E1 [4] is reported as “activated”. The “Agonist activity at Olfr78” value at Olfr78 [1] (setting [8]) is given as “agonists”. The “Agonist activity at OR51E2” value at OR51E2 [2] (setting [8]) was “agonists”. Besides, the “Activation of Olfr78 (in words)” value on Olfr78 [3] (setting [9]) was “stimulated Olfr78”. Further, in the experiment on carotid body, the “Carotid sinus nerve activity, Olfr78-/- mutants” value is given as “little effect” and the “Carotid sinus nerve activity, Olfr78+/+” value was “stimulate carotid sinus nerve activity”.
With `Cl` [Chloride ion, chloride], the “Activation of Olfr78 (in words)” value at Olfr78 [3] is given as “no effect”.
`CC(C)CC(=O)O` [isovaleric acid]: the “Agonist activity at OR51E1” value on OR51E1 [4] is on record as “activated”.
Take `CCCCCCCCC(=O)O` [nonanoic acid]: at OR51E1 [4], the “Agonist activity at OR51E1” value is recorded as “activated”. Moreover, at Olfr558, the “Agonist activity at Olfr558 in chemical screen” value is reported as “activated”. Also, the “Agonist activity at OR51E1 in chemical screen” value on OR51E1 [6] is given as “activated”.
`CCCCOC(=O)C(C)OC(=O)CCC` (stereo not drawn) [butyl butylryllactate]: the “Agonist activity at OR51E1 in chemical screen” value on OR51E1 [6] is recorded as “activated”.
A word on the EC50: it is the concentration at which the effect is half-maximal. In the case of `CC(O)C(=O)O` (stereo not drawn) [lactate, 2-hydroxypropanoic acid], the “Calcium response of glomus cells” value in experiment [7] is “induced calcium transients”. Moreover, the “Activation of Olfr78 (in words)” value at Olfr78 [3] (setting [9]) is “activated Olfr78 in a dose-dependent manner”. Further, on Olfr78 [3] (heterologous expression in HEK293T cells, sodium salts, 2 hours stimulation, read-out: EC50 for activation of Olfr78), the EC50 turned out to be 4 mM. Further, in the experiment on carotid body, the “Carotid sinus nerve activity, Olfr78-/- mutants” value is on record as “little response” and the “Carotid sinus nerve activity, Olfr78+/+” value is recorded as “increased carotid sinus nerve activity”.
Regarding `O=CO` [formate], the “Agonist activity at Olfr78” value on Olfr78 [1] is “not”. Besides, the “Agonist activity at OR51E2” value on OR51E2 [2] was “not”.
